The subject of data set [1] is human HepG2 flank tumours. Description: Efficacy in vivo: antitumour activity against subcutaneous human HepG2 flank tumours in nude mice (Example 20). The note with it: for Average tumour size (at sacrifice): control 10.4; for Average tumour size (at sacrifice) / Number of mice surviving after tumour innoculation, day 17 / Number of mice surviving after tumour innoculation, day 25 / Number of mice surviving after tumour innoculation, day 30 / toxic side effects to the animals / appearance of treated animals / rate of disease progression in treated animals / survival time of treated mice over untreated animals: 1300 mg/kg; for Number of mice surviving after tumour innoculation, day 0: day 0 after tumour inoculation; for Number of mice surviving after tumour innoculation, day 17: day 17 after tumour inoculation; for Number of mice surviving after tumour innoculation, day 25: day 25 after tumour inoculation; for Number of mice surviving after tumour innoculation, day 30: day 30 after tumour inoculation. More on the design: species or system human tumour in nude mice. How it is done: Nude mice were inoculated with subcutaneous human HepG2 flank tumours to determine the antitumour activity of Compound 1 in vivo. After allowing the tumours to develop for the first seven days, we attempted to prevent tumour progression by seven ip treatments every 48 hours at doses of 1300 mg/kg.

Data set [2] relates to nude mice. The note with it: mouse, in vivo, ip. How it is done: The toxicity of Compound 1 (as described in Example 1) relative to 5-FU was determined in nude mice. Clinical grade 5-FU was used to provide a point of comparison with other toxicity studies in the literature. Animals were injected six times ip, in groups of 5, every 48 hours, with various doses of 5-FU or Compound 1.

For data set [3], the system named is nude mice. The conditions noted are these: single bolus toxicity; NCI data base; cited from earlier work.
Where [4] appears, read: seven ip treatments every 48 hours.

Results on five molecules are retold here after patent US5945406A, “Therapeutic compounds with pyrimidine base” (Oxford Glycosciences (UK) Ltd., priority 1995, dated 1999).

As usually defined, the LD50 is the dose at which mortality reaches 50%.

On to “1-(β-L-2-Arabinopyranosyl)-5-fluorouracil and 1-(α-L-2-Arabinopyranosyl)-5-fluorouracil [Compound 6]”, for which, in data set [1] (setting [4]), the “Average tumour size (at sacrifice)” value was found to be 6.2; the “Number of mice surviving after tumour innoculation, day 17” value (shortened to “Number of mice surviving … day 17”) was found to be 4 mice; the “Number of mice surviving after tumour innoculation, day 25” value (“Number of mice surviving … day 25” for short) is 2 mice; the “Number of mice surviving after tumour innoculation, day 30” value (“Number of mice surviving … day 30” below) came to 2 mice. Besides, in data set [1] (setting [4]), the “appearance of treated animals” value is recorded as “very healthy appearance”, the “rate of disease progression in treated animals” value (shortened to “rate of disease progression”) is on record as “significantly slowed the rate by which the disease progressed” and the “survival time of treated mice over untreated animals” value is listed as “increased survival time”. In data set [1], the “Number of mice surviving after tumour innoculation, day 0” value (“Number of mice surviving … day 0” for short) came out at 5 mice. For the same molecule, in data set [1] (in vivo, ip), the “toxic side effects to the animals” value is reported as “without causing any toxic side effects”.
“1-β-D-Galactopyranosyl-5-fluorouracil and 1-α-D-Galactopyranosyl-5-fluorouracil [Compound 1]”: in data set [1] (setting [4]), the “Average tumour size (at sacrifice)” value is 9.4; the “Number of mice surviving … day 17” value is 3 mice; the “Number of mice surviving … day 25” value is reported as 2 mice; the “Number of mice surviving … day 30” value was 1 mice. For the same molecule, in data set [1] (setting [4]), the “rate of disease progression” value is reported as “significantly slowed the rate by which the disease progressed” and the “survival time of treated mice over untreated animals” value is “increased survival time”. Further, the “Number of mice surviving … day 0” value in data set [1] turned out to be 5 mice. Further, in data set [1] (in vivo, ip), the “appearance of treated animals” value was “very healthy appearance” and the “toxic side effects to the animals” value is recorded as “without causing any toxic side effects”. Moreover, in the data set with nude mice [2], the “MAD (maximal achievable dose)” value amounted to 1300 mg/kg.
Turning to “1-β-L-Galactopyranosyl-5-fluorouracil and 1 -α-L-Galactopyranosyl-5-fluorouracil [Compound 2]”, in data set [1] (setting [4]), the “Average tumour size (at sacrifice)” value came to 5.6; the “Number of mice surviving … day 17” value is 5 mice; the “Number of mice surviving … day 25” value is recorded as 3 mice; the “Number of mice surviving … day 30” value was 2 mice. Besides, in data set [1] (setting [4]), the “rate of disease progression” value was “significantly slowed the rate by which the disease progressed” and the “survival time of treated mice over untreated animals” value was “increased survival time”. The “Number of mice surviving … day 0” value in data set [1] came to 5 mice. In addition, in data set [1] (in vivo, ip), the “appearance of treated animals” value is given as “very healthy appearance” and the “toxic side effects to the animals” value is listed as “without causing any toxic side effects”.
For the molecule `O=c1[nH]cc(F)c(=O)[nH]1` [Compound 5-FU, 5-Fluorouracil, reference compound], in data set [1] (setting [4]), the “Average tumour size (at sacrifice)” value turned out to be 10.2; the “Number of mice surviving … day 17” value was 3 mice; the “Number of mice surviving … day 25” value is 2 mice; the “Number of mice surviving … day 30” value amounted to 0 mice. Besides, in data set [1], the “Number of mice surviving … day 0” value is given as 5 mice. Also, in the data set with nude mice [3], the LD10 was 165 mg/kg and the LD50 is 360 mg/kg.
With `CC(=O)N[C@@H]1[C@@H](O)[C@@H](O)[C@@H](CO)O[C@H]1n1cc(F)c(=O)[nH]c1=O` [Compound 10, 1-(β-D-2-Deoxy-2-N-acetylgalactopyranosyl)-5-fluorouracil], in data set [1] (setting [4]), the “Average tumour size (at sacrifice)” value is 9; the “Number of mice surviving … day 17” value was found to be 3 mice; the “Number of mice surviving … day 25” value is on record as 2 mice; the “Number of mice surviving … day 30” value worked out at 1 mice. In data set [1] (setting [4]), the “appearance of treated animals” value is listed as “very healthy appearance”, the “rate of disease progression” value is “significantly slowed the rate by which the disease progressed”, the “survival time of treated mice over untreated animals” value was “increased survival time” and the “toxic side effects to the animals” value is reported as “without causing any toxic side effects”. The “Number of mice surviving … day 0” value in data set [1] was 5 mice.
